{"source": "paper PMC9096979", "about": "(ACS Omega, 2022)", "origin": "cited, not measured here", "target": "myotoxin II (Bothrops asper, UniProt P24605)", "sequence (P24605 17-137 limits assumed)": "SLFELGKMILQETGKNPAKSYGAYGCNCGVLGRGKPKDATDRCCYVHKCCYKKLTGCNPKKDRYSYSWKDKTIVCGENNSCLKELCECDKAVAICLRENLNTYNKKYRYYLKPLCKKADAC"}
{"smiles": "Cc1ccc(C(=O)Nc2ccc(S(=O)(=O)O)c3cc(S(=O)(=O)O)cc(S(=O)(=O)O)c23)cc1NC(=O)c1cccc(NC(=O)Nc2cccc(C(=O)Nc3cc(C(=O)Nc4ccc(S(=O)(=O)O)c5cc(S(=O)(=O)O)cc(S(=O)(=O)O)c45)ccc3C)c2)c1", "note": "[suramin]", "values": [{"measurement": "inhibition of myotoxin II, in words", "value": "capable of inhibiting myotoxin II"}]}
